Laboratory results reported in the NIST ThermoML archive (doi:10.1021/je0342724).
± gives the expanded uncertainty stated by the source.

Assays:
[1] = Molar enthalpy of transition or fusion; conditions: Crystal; DSC
[2] = Crystal; DTA

Row | Compound | Molar enthalpy of transition or fusion [1] [kcal/mol] | Normal melting temperature [2] [°C]
1 | Brc1cc(Br)c(Br)cc1Br [1,2,4,5-tetrabromobenzene] | 5.83 ± 0.598 | 181.4 ± 1.1
2 | Brc1ccc(Br)c(Br)c1 [1,2,4-tribromobenzene] | 4.28 ± 0.43 | 44 ± 1.1
3 | Brc1ccc(Br)cc1 [1,4-dibromobenzene] | 4.45 ± 0.454 | 84.6 ± 1.1
4 | Brc1c(Br)c(Br)c(Br)c(Br)c1Br [hexabromobenzene] | 5.88 ± 0.598 | 325.6 ± 1.1
